# In paper PMC10235067, “Increased renal elimination of endogenous and synthetic pyrimidine nucleosides in concentrative nucleoside transporter 1 deficient mice” (Nature Communications, 2023):
# Several values for one entry are separate records, joined by “and”; a condition that tells them apart may be missing. Equal values may be shown once. Where a name gives a salt, the structure may show the parent alone.
# Assay: Gemcitabine plasma pharmacokinetics in Slc28a1+/+ and Slc28a1-/- mice
# Details: Gemcitabine in plasma, iv gemcitabine 50mg/kg, per mouse
# Experimental: To collect blood, a 5 mm lancet was used to apply pressure to the submandibular vein and release blood flow. For retro-orbital collection, mice were anesthetized with 3% isoflurane in oxygen, and the blood was collected directly into heparinized capillary tubes by applying slight pressure to the medial canthus of the eye. Cardiac puncture was performed as the final collection method by first euthanizing the mice in a CO2 chamber and immediately performing posterior cardiac puncture by inserting a 27 G needle with a 1 ml syringe attachment into the heart. Once blood collection was completed, gentle pressure was applied to the blood collection area using gauze to stop the bleeding. Thirty microliters of blood was collected into heparinized capillary tubes at each time point, transferred into prelabeled 0.5 ml microcentrifuge tubes containing THU (10 µg/ml; final concentration), and immediately processed and snap-frozen following procedures outlined in the “Gemcitabine plasma pharmacokinetics” methods section.
# Gemcitabine and dFdU plasma concentrations were measured using a modified version of our previously published UHPLC–MS/MS method for nucleosides[74] […] Noncompartmental pharmacokinetic parameters (Cmax, Tmax, AUC, CL, T1/2, etc.) were calculated using WinNonlin 6.2 software (Pharsight; Mountain View, CA). […] The Cmax and Tmax were obtained from the concentration-time curve. The AUC was calculated according to the linear trapezoidal rule up to the last time point with a measurable concentration of the analyte of interest. Significant differences between Slc28a1^+/+ and Slc28a1^−/− mouse pharmacokinetic parameters (p < 0.05) were evaluated with an unpaired two-sided Student’s t-test.
# The resulting supernatant was evaporated to dryness in a SpeedVac, and the remaining residue was reconstituted in mobile phase A for subsequent analysis. […] Subsequent processing was identical to that for the plasma and urine samples.
# Briefly, the analysis was performed on an Imtakt Schzero SM C18 column, 2.1 × 100 mm, 3.0 µm particle size. The eluents used consisted of mobile phase A consisting of 50 mM ammonium formate:50 mM ammonium hydroxide (9:1, v/v) (pH = 8.6) and mobile phase B consisting of 50 mM ammonium formate:50 mM ammonium hydroxide (9:1, v/v):ACN (80:20, v/v) (pH = 8.6). […] The injection volume was 10 μL, and the autosampler temperature was set at 4 °C throughout the analysis.
# The Waters Triple Quadrupole Mass Spectrometer with an ESI source was operated in negative and positive ion mode at a spray voltage of 2.5 kV, capillary temperature of 150 °C, and vaporizer temperature of 250 °C. Compound optimization was performed manually using the MassLynx 4.1 Software AutoTune Wizard (Waters, Milford, MA) by infusion into the mass spectrometer using a T-connector. […] Analyze concentrations were determined and analyzed using MassLynx Mass Spectrometry Software (Waters; Milford, MA).
smiles,measurement,setting,value
"Nc1ccn([C@@H]2O[C@H](CO)[C@@H](O)C2(F)F)c(=O)n1 [dFdC, Gemcitabine hydrochloride, reference compound]",AUC_%Back_Ext_obs,KO mice,23.4974% and 21.9481% and 43.9469% and 42.6077% and 48.9911% and 43.8068%
same,AUC_%Back_Ext_pred,KO mice,23.4818% and 21.941% and 44.1109% and 43.4198% and 49.1119% and 43.8762%
same,AUC_%Extrap_obs,KO mice,23.7% and 27.5311% and 0.9315% and 2.802% and 0.4504% and 6.001%
same,AUC_%Extrap_pred,KO mice,23.7507% and 27.5543% and 0.5618% and 0.9493% and 0.2051% and 5.852%
same,AUCall,KO mice,36446.4 ng·min/mL and 50206 ng·min/mL and 39423.8 ng·min/mL and 51060.7 ng·min/mL and 66882.1 ng·min/mL and 76930.3 ng·min/mL
same,AUClast,KO mice,34957 ng·min/mL and 48549.9 ng·min/mL and 38537.7 ng·min/mL and 51060.7 ng·min/mL and 66035.4 ng·min/mL and 75549.7 ng·min/mL
same,AUClast_D,KO mice,699.14 kg·ng·min/mL/mg and 970.999 kg·ng·min/mL/mg and 770.754 kg·ng·min/mL/mg and 1021.21 kg·ng·min/mL/mg and 1320.71 kg·ng·min/mL/mg and 1510.99 kg·ng·min/mL/mg
same,AUMCINF_obs,KO mice,6487547 min*min*ng/mL and 15108021 min*min*ng/mL and 317047 min*min*ng/mL and 1417805 min*min*ng/mL and 460548 min*min*ng/mL and 2237155 min*min*ng/mL
same,AUMCINF_pred,KO mice,6504522 min*min*ng/mL and 15124898 min*min*ng/mL and 306594 min*min*ng/mL and 1123964 min*min*ng/mL and 449037 min*min*ng/mL and 2195280 min*min*ng/mL
same,AUMC_%Extrap_obs,KO mice,93.2939% and 96.2322% and 8.26% and 31.0459% and 4.579% and 71.0667%
same,AUMC_%Extrap_pred,KO mice,93.3114% and 96.2364% and 5.1318% and 13.0191% and 2.133% and 70.5148%
same,AUMClast,KO mice,435061 min*min*ng/mL and 569242 min*min*ng/mL and 290860 min*min*ng/mL and 977634 min*min*ng/mL and 439460 min*min*ng/mL and 647283 min*min*ng/mL
same,C0,KO mice,2226.24 ng/mL and 3096.19 ng/mL and 4174.86 ng/mL and 5972.33 ng/mL and 9031.34 ng/mL and 9852.43 ng/mL
same,Cl_obs,KO mice,1091.34 mL/min/kg and 746.334 mL/min/kg and 1285.35 mL/min/kg and 951.789 mL/min/kg and 753.759 mL/min/kg and 622.099 mL/min/kg
same,Cl_pred,KO mice,1090.62 mL/min/kg and 746.095 mL/min/kg and 1290.14 mL/min/kg and 969.932 mL/min/kg and 755.617 mL/min/kg and 623.084 mL/min/kg
same,Clast,KO mice,24.8237 ng/mL and 27.6006 ng/mL and 29.5353 ng/mL and 24.934 ng/mL and 28.2215 ng/mL and 23.0093 ng/mL
same,Clast_pred,KO mice,24.8933 ng/mL and 27.6326 ng/mL and 17.7456 ng/mL and 8.289 ng/mL and 12.8177 ng/mL and 22.4033 ng/mL
same,Cmax_D,KO mice,41.5984 kg·ng/mL/mg and 55.7076 kg·ng/mL/mg and 53.2658 kg·ng/mL/mg and 59.6169 kg·ng/mL/mg and 79.356 kg·ng/mL/mg and 84.6224 kg·ng/mL/mg
same,HL_Lambda_z,KO mice,303.191 min and 463.2 min and 8.504 min and 40.9198 min and 7.338 min and 145.3 min
same,Lambda_z,KO mice,0.002286 min⁻¹ and 0.001496 min⁻¹ and 0.08151 min⁻¹ and 0.01694 min⁻¹ and 0.09446 min⁻¹ and 0.00477 min⁻¹
same,MRTINF_obs,KO mice,141.603 min and 225.512 min and 8.15 min and 26.989 min and 6.943 min and 27.8346 min
same,MRTINF_pred,KO mice,141.879 min and 225.692 min and 7.911 min and 21.8034 min and 6.786 min and 27.3569 min
same,MRTlast,KO mice,12.4456 min and 11.7249 min and 7.547 min and 19.1465 min and 6.655 min and 8.568 min
same,Tlast,KO mice,120 min and 60 min and 240 min
same,Tmax,KO mice,5 min
same,Vss_obs,KO mice,154.537 L/kg and 168.308 L/kg and 10.4759 L/kg and 25.6879 L/kg and 5.23323 L/kg and 17.3159 L/kg
same,Vss_pred,KO mice,154.735 L/kg and 168.388 L/kg and 10.2063 L/kg and 21.1478 L/kg and 5.12762 L/kg and 17.0456 L/kg
same,Vz_obs,KO mice,477.366 L/kg and 498.742 L/kg and 15.7693 L/kg and 56.1887 L/kg and 7.97936 L/kg and 130.407 L/kg
same,Vz_pred,KO mice,477.049 L/kg and 498.582 L/kg and 15.8281 L/kg and 57.2597 L/kg and 7.99903 L/kg and 130.613 L/kg
same,AUCINF_D_obs,WT mice,1342.37 kg·ng·min/mL/mg and 2003.95 kg·ng·min/mL/mg and 1404.16 kg·ng·min/mL/mg and 1832.16 kg·ng·min/mL/mg and 1677.59 kg·ng·min/mL/mg and 1947.35 kg·ng·min/mL/mg
same,AUCINF_D_pred,WT mice,1351.51 kg·ng·min/mL/mg and 2009.55 kg·ng·min/mL/mg and 1397.88 kg·ng·min/mL/mg and 1826.34 kg·ng·min/mL/mg and 1669.05 kg·ng·min/mL/mg and 1936.73 kg·ng·min/mL/mg
same,AUCINF_obs,WT mice,100198 ng·min/mL and 70207.8 ng·min/mL and 91608.1 ng·min/mL and 83879.3 ng·min/mL and 97367.3 ng·min/mL
same,AUCINF_pred,WT mice,100478 ng·min/mL and 69893.8 ng·min/mL and 91317 ng·min/mL and 83452.5 ng·min/mL and 96836.3 ng·min/mL
same,AUC_%Back_Ext_obs,WT mice,12.8582% and 20.8763% and 29.2762% and 32.2576% and 32.4305% and 25.1142%
same,AUC_%Back_Ext_pred,WT mice,12.7713% and 20.8181% and 29.4077% and 32.3604% and 32.5963% and 25.252%
